Measured values published in patent publication US4098823A, “Monospiroalkyl derivatives of prostaglandins” (Miles Laboratories, Inc., priority 1977, dated 1978).

Key:
[1] = system: Human Platelet Aggregation; experiment: Inhibition of Human Platelet Aggregation; format: cell-based; settings: in vitro
Experimental: The ability of test compounds to inhibit platelet aggregation was determined by a modification of the turbidometric technique of Born (Nature, 194:927 [1962]). Blood was collected from human volunteers who had not ingested aspirin or aspirin-containing products within the preceding two weeks in heparinized containers and was allowed to settle for one (1) hour. The platelet rich plasma (prp) supernates were collected and cooled. Siliconized glassware was used throughout.
In a representative assay 1.9 ml of PRP and 0.2 ml of test compound at the appropriate concentrations (0.001 to 100 mcgm), or 0.2 ml of distilled water (control procedure) were placed in sample cuvettes. The cuvettes were placed in a 37° C incubation block for 15 minutes, and then in a spectrophotometer linked to a strip chart recorder. After 30-60 seconds, 0.2 ml of a solution, prepared by diluting a calf-skin collagen solution 1:9 with Tyrodes' Solution, was added to each cuvette. Platelet aggregation was evidenced by a decrease in optical density.
An ED50 value was then determined graphically.

[2] = system: Gastric Secretion; experiment: Effects on Gastric Secretion in the Rat; format: in vivo; settings: pylorus-ligated rat, subcutaneous, 2 x 1.5 mg/kg (total 3.0 mg/kg), 4 hours
How it was run: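 Rats (150-200 g, groups of six) fasted 48 h, pylorus ligated under ether. Compounds given s.c. in phosphate buffer pH 7.38 at 1.5 mg/kg immediately post-surgery and 2 h later (total 3.0 mg/kg). At 4 h, gastric volume and total acid (titration with 0.1 N NaOH, mEq) compared with vehicle controls by t-test.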

[3] = system: Femoral Blood Flow; experiment: Effects on Femoral Blood Flow in the Dog; format: in vivo; settings: anesthetized mongrel dog, intraarterial, 0.001 to 10 mcg
Experimental: The peripheral vasodilator or constrictor effects of these compounds were determined in mongrel dogs of either sex, weighing between 10 and 20 kg anesthestized intravenously with 35 mg/kg of sodium pentobarbital. An external iliac artery was dissected immediately above the femoral arch for a length of approximately 5 cm and a previously calibrated, non-connulating electromagnetic flowmeter sensor with a lumen between 2.5 and 3.5 mm was placed snugly around the vessel. Cannulas were placed in a branch of the artery arising distally to the location of the flowmeter sensor for intraarterial drug administrations, in the contralateral femoral artery for systemic blood pressure recordings and in the trachea for artificial respiration with room air. Femoral blood flow and systemic blood pressure were continously recorded with an electromagnetic flowmeter and pressure tranducer, respectively.
After an adequate control period, test compounds were injected intraarterially at one log-spaced doses ranging from 0.001 to 10 mcg., in a volume of 0.5 ml and at 5 to 10 minute intervals. Maximum changes in bloodflow, as well as any variations in blood pressure, were tabulated for each dose in absolute values (ml/min. and mmHg). The calculations were made taking as control values those existing immediately before administration of each dose. The direction of the observed change (plus for increase and minus for decrease) was also noted. The dose changing bloodflow by 100 ml/min (ED100 ml/min) was calculated graphically and was used for scoring activity as follows: […]

[4] = system: rat stomach fundus; experiment: Cascade Assay, stomach (smooth muscle stimulant effect); format: cell-based; settings: superfused, 50% of maximum (PGE1)
How it was run: (§1)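 Rabbit aortic strip (4 g tension), rat stomach fundus, rat colon and chick rectum (1 g) in cascade, superfused at 10 ml/min with 37° C Krebs containing cholinergic, adrenergic, serotonin and histamine blockers. Doses of 0.001–100,000 ng dripped on at 10–20 min intervals; maximal tension rise gave graphical ED50 per tissue.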

[5] = system: rat colon; experiment: Cascade Assay, colon (smooth muscle stimulant effect); format: cell-based; settings: superfused, 50% of maximum (PGF2α)
How it was run: as §1

[6] = system: chick rectum; experiment: Cascade Assay, rectum (smooth muscle stimulant effect); format: cell-based; settings: superfused, 50% of maximum (PGE1)
How it was run: as §1

## COC(=O)CCCCCC[C@H]1C(=O)C[C@@H](O)[C@@H]1/C=C/[C@H](O)C1CC2(CCC2)C1 [TR-4120, Methyl 7-{3R-hydroxy-5-oxo-2R-[3R-hydroxy-3-(spiro[3.3]hept-2-yl)-1E-propenyl]cyclopent-1R-yl}heptanoate]
[1]
  inhibition of aggregation of human platelets, in words: inhibit aggregation of platelets
[2]
  Test B Activity Value (% decrease in acidity, inhibition of gastric secretion): 2 (26-50, significant)
[3]
  Test C Activity Value (ED100 ml/min, increase in femoral blood flow): 0 (>10.0)
[4]
  Test E Cascade Assay, Stomach, Activity Value (ED50): 0 (>10000)
[5]
  Test E Cascade Assay, Colon, Activity Value (ED50): 0 (>10000)
[6]
  Test E Cascade Assay, Rectum, Activity Value (ED50): 1 (1001 - 10000)
